Measurements published in the supplement of paper PMC13380429.

Legend:
Details in all cases: 72 h
Calu-3 [1] = assay: drug sensitivity score (DSS) for viability; higher = more toxic; extreme values may be limits of the assay
Vero E6 [2] = assay: as above
Calu-3 [3] = assay: cell viability relative to DMSO; higher = less toxic
Vero E6 [4] = assay: as above
Calu-3 [5] = assay: relative viability EC50 (midpoint between 100% and the lowest measured viability); higher = less toxic
Vero E6 [6] = assay: as above
Caco-2 [7] = assay: drug sensitivity score (DSS) for viability; higher = more toxic; extreme values may be limits of the assay
Caco-2 [8] = assay: cell viability relative to DMSO; higher = less toxic
Caco-2 [9] = assay: relative viability EC50 (midpoint between 100% and the lowest measured viability); higher = less toxic
HepG2 [10] = assay: drug sensitivity score (DSS) for viability; higher = more toxic; extreme values may be limits of the assay
U2OS [11] = assay: as above
HepG2 [12] = assay: cell viability relative to DMSO; higher = less toxic
U2OS [13] = assay: as above
HepG2 [14] = assay: relative viability EC50 (midpoint between 100% and the lowest measured viability); higher = less toxic
U2OS [15] = assay: as above

Q: What does the source list for [I-].[K+] [potassium-iodide]?
A: drug sensitivity score (Calu-3 [1]): 0; drug sensitivity score (Vero E6 [2]): 0; cell viability (Calu-3 [3]; 1 nM): 99.9%; cell viability (Calu-3 [3]; 10 nM): 111%; cell viability (Calu-3 [3]; 100 nM): 96.2%; cell viability (Calu-3 [3]; 1000 nM): 102%; cell viability (Calu-3 [3]; 10000 nM): 95.1%; cell viability (Vero E6 [4]; 1 nM): 102%; cell viability (Vero E6 [4]; 10 nM): 99.7%; cell viability (Vero E6 [4]; 100 nM): 103%; cell viability (Vero E6 [4]; 1000 nM): 101%; cell viability (Vero E6 [4]; 10000 nM): 106%; relative viability EC50 (Calu-3 [5]): > 10 µM; relative viability EC50 (Vero E6 [6]): > 10 µM

Q: How did the drug sensitivity score (Calu-3 [1]) turn out when COc1cc2c(cc1OC)[C@@H]1Cc3ccc(OC)c(OC)c3CN1CC2 [rotundine] was run?
A: 0

Q: And the drug sensitivity score (Caco-2 [7])?
A: 0

Q: And the cell viability (Calu-3 [3]; 1 nM)?
A: 103%

Q: What about the cell viability (Calu-3 [3]; 10 nM) of the same compound?
A: 108%

Q: What about the cell viability (Calu-3 [3]; 100 nM) of the same compound?
A: 99.8%

Q: What about the cell viability (Calu-3 [3]; 1000 nM) of the same compound?
A: 101%

Q: What about the cell viability (Calu-3 [3]; 10000 nM) of the same compound?
A: 89.2%

Q: What about the cell viability (Caco-2 [8]; 1 nM) of the same compound?
A: 102%

Q: What about the cell viability (Caco-2 [8]; 10 nM) of the same compound?
A: 98.1%

Q: And the cell viability (Caco-2 [8]; 100 nM)?
A: 94.8%

Q: And the cell viability (Caco-2 [8]; 1000 nM)?
A: 109%

Q: What about the cell viability (Caco-2 [8]; 10000 nM) of the same compound?
A: 91%

Q: And the “relative viability EC50” value (Calu-3 [5])?
A: > 10 µM

Q: What about the “relative viability EC50” value (Caco-2 [9]) of the same compound?
A: > 10 µM

Q: How did the drug sensitivity score (Calu-3 [1]) turn out when CC1(C)CCC(C)(C)c2cc(NC(=O)c3ccc(C(=O)O)cc3)ccc21 [tamibarotene] was run?
A: 10.1

Q: And the drug sensitivity score (Vero E6 [2])?
A: 0

Q: What about the drug sensitivity score (Caco-2 [7]) of the same compound?
A: 0.4

Q: What about the drug sensitivity score (HepG2 [10]) of the same compound?
A: 0

Q: What about the drug sensitivity score (U2OS [11]) of the same compound?
A: 0.3

Q: And the cell viability (Calu-3 [3]; 1 nM)?
A: 95.4%

Q: And the cell viability (Calu-3 [3]; 10 nM)?
A: 83.6%

Q: What about the cell viability (Calu-3 [3]; 100 nM) of the same compound?
A: 73.5%

Q: What about the cell viability (Calu-3 [3]; 1000 nM) of the same compound?
A: 67.8%

Q: And the cell viability (Calu-3 [3]; 10000 nM)?
A: 70.1%

Q: And the cell viability (Vero E6 [4]; 1 nM)?
A: 101%

Q: And the cell viability (Vero E6 [4]; 10 nM)?
A: 101%

Q: What about the cell viability (Vero E6 [4]; 100 nM) of the same compound?
A: 100%

Q: What about the cell viability (Vero E6 [4]; 1000 nM) of the same compound?
A: 91.6%

Q: And the cell viability (Vero E6 [4]; 10000 nM)?
A: 96.5%

Q: And the cell viability (Caco-2 [8]; 1 nM)?
A: 98%

Q: And the cell viability (Caco-2 [8]; 10 nM)?
A: 100%

Q: What about the cell viability (Caco-2 [8]; 100 nM) of the same compound?
A: 95.4%

Q: And the cell viability (Caco-2 [8]; 1000 nM)?
A: 98.8%

Q: What about the cell viability (Caco-2 [8]; 10000 nM) of the same compound?
A: 83.8%

Q: And the cell viability (HepG2 [12]; 1 nM)?
A: 110%

Q: And the cell viability (HepG2 [12]; 10 nM)?
A: 98.7%

Q: And the cell viability (HepG2 [12]; 100 nM)?
A: 114%

Q: What about the cell viability (HepG2 [12]; 1000 nM) of the same compound?
A: 109%

Q: And the cell viability (HepG2 [12]; 10000 nM)?
A: 108%

Q: And the cell viability (U2OS [13]; 1 nM)?
A: 99%

Q: And the cell viability (U2OS [13]; 10 nM)?
A: 96.1%

Q: And the cell viability (U2OS [13]; 100 nM)?
A: 90.6%

Q: And the cell viability (U2OS [13]; 1000 nM)?
A: 91.4%

Q: And the cell viability (U2OS [13]; 10000 nM)?
A: 87.7%

Q: What about the “relative viability EC50” value (Vero E6 [6]) of the same compound?
A: > 10 µM

Q: And the “relative viability EC50” value (Caco-2 [9])?
A: > 10 µM

Q: What about the “relative viability EC50” value (HepG2 [14]) of the same compound?
A: > 10000 nM

Q: What about the “relative viability EC50” value (U2OS [15]) of the same compound?
A: > 10 µM

Q: Which results are given for COc1cc([C@@H]2c3cc4c(cc3[C@@H](O[C@@H]3O[C@@H]5CO[C@@H](c6cccs6)O[C@H]5[C@H](O)[C@H]3O)[C@H]3COC(=O)[C@H]23)OCO4)cc(OC)c1O [teniposide]?
A: drug sensitivity score (Calu-3 [1]): 12.6; drug sensitivity score (Vero E6 [2]): 4.6; drug sensitivity score (Caco-2 [7]): 7.8; drug sensitivity score (HepG2 [10]): 21.5; drug sensitivity score (U2OS [11]): 9.4; cell viability (Calu-3 [3]; 1 nM): 91.1%; cell viability (Calu-3 [3]; 10 nM): 92.6%; cell viability (Calu-3 [3]; 100 nM): 75.8%; cell viability (Calu-3 [3]; 1000 nM): 47.2%; cell viability (Calu-3 [3]; 10000 nM): 40.6%; cell viability (Vero E6 [4]; 1 nM): 106%; cell viability (Vero E6 [4]; 10 nM): 92.8%; cell viability (Vero E6 [4]; 100 nM): 100%; cell viability (Vero E6 [4]; 1000 nM): 75%; cell viability (Vero E6 [4]; 10000 nM): 64%; cell viability (Caco-2 [8]; 1 nM): 108%; cell viability (Caco-2 [8]; 10 nM): 95.7%; cell viability (Caco-2 [8]; 100 nM): 100%; cell viability (Caco-2 [8]; 1000 nM): 71%; cell viability (Caco-2 [8]; 10000 nM): 29%; cell viability (HepG2 [12]; 1 nM): 89.6%; cell viability (HepG2 [12]; 10 nM): 86.1%; cell viability (HepG2 [12]; 100 nM): 47.3%; cell viability (HepG2 [12]; 1000 nM): 27.8%; cell viability (HepG2 [12]; 10000 nM): 9.9%; cell viability (U2OS [13]; 1 nM): 99.3%; cell viability (U2OS [13]; 10 nM): 94.4%; cell viability (U2OS [13]; 100 nM): 92.7%; cell viability (U2OS [13]; 1000 nM): 66.5%; cell viability (U2OS [13]; 10000 nM): 4.2%; relative viability EC50 (Calu-3 [5]): 0.129 µM; relative viability EC50 (Caco-2 [9]): 1.16 µM; relative viability EC50 (HepG2 [14]): 76.1 nM; relative viability EC50 (U2OS [15]): 1.37 µM

Q: Which drug sensitivity score (Calu-3 [1]) does the source give for C/C=C/C[C@@H](C)C(=O)[C@H]1C(=O)N[C@@H](C(C)C)C(=O)N(C)CC(=O)N(C)[C@@H](CC(C)C)C(=O)N[C@@H](C(C)C)C(=O)N(C)[C@@H](CC(C)C)C(=O)N[C@@H](C)C(=O)N[C@H](C)C(=O)N(C)[C@@H](CC(C)C)C(=O)N(C)[C@@H](CC(C)C)C(=O)N(C)[C@@H](C(C)C)C(=O)N1C [valspodar] here?
A: 0.3

Q: And the drug sensitivity score (Caco-2 [7])?
A: 5.9

Q: What about the drug sensitivity score (U2OS [11]) of the same compound?
A: 0.1

Q: And the cell viability (Calu-3 [3]; 1 nM)?
A: 109%

Q: What about the cell viability (Calu-3 [3]; 10 nM) of the same compound?
A: 99.8%

Q: And the cell viability (Calu-3 [3]; 100 nM)?
A: 95.4%

Q: And the cell viability (Calu-3 [3]; 1000 nM)?
A: 105%

Q: What about the cell viability (Calu-3 [3]; 10000 nM) of the same compound?
A: 82.2%

Q: What about the cell viability (Caco-2 [8]; 1 nM) of the same compound?
A: 119%

Q: And the cell viability (Caco-2 [8]; 10 nM)?
A: 111%

Q: What about the cell viability (Caco-2 [8]; 100 nM) of the same compound?
A: 106%

Q: What about the cell viability (Caco-2 [8]; 1000 nM) of the same compound?
A: 73.5%

Q: What about the cell viability (Caco-2 [8]; 10000 nM) of the same compound?
A: 50.7%

Q: What about the cell viability (U2OS [13]; 1 nM) of the same compound?
A: 99.9%

Q: What about the cell viability (U2OS [13]; 10 nM) of the same compound?
A: 96.4%

Q: What about the cell viability (U2OS [13]; 100 nM) of the same compound?
A: 102%

Q: And the cell viability (U2OS [13]; 1000 nM)?
A: 99.7%

Q: What about the cell viability (U2OS [13]; 10000 nM) of the same compound?
A: 87.4%

Q: What about the “relative viability EC50” value (Calu-3 [5]) of the same compound?
A: > 10 µM

Q: And the “relative viability EC50” value (U2OS [15])?
A: > 10 µM
